{"source": "patent US11078193B2", "about": "(priority 2014, dated 2021)", "key": {"HBV [1]": {"test_system": "HBV", "assay": "anti-HBV activity, HepG2.2.15 stable transfected cell line, HBV DNA from secreted virions by realtime PCR", "assay_type": "cell-based", "conditions": "Hepatitis B virus, 144 h, HepG2.2.15 cells, 6 days of treatment"}, "HBV [2]": {"test_system": "HBV", "assay": "anti HBV activity, HepG2.117 inducibly HBV producing cell line (Tet-off), intracellular HBV DNA by realtime PCR", "assay_type": "cell-based", "conditions": "Hepatitis B virus, 72 h, HepG2.117 cells, 3 days of treatment"}, "[3]": {"assay": "Cytotoxicity, HepG2 cells, Resazurin assay", "assay_type": "cell-based", "conditions": "human"}, "[4]": {"assay": "ATP based toxicity assay (ATPlite), HepG2 cell line", "conditions": "human, HepG2 cells, ATPlite (ATP levels)", "how_it_was_run": "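HepG2 cells exposed to compound, then ATPlite reagent added at 1 volume. Cellular ATP read by luminescence as a viability measure.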"}}}
{"smiles": "C[C@@H](NS(=O)(=O)c1cn(C)c(C(=O)Nc2ccnc(Cl)c2)c1Cl)C(F)(F)F", "note": "[Compound 12, 3-Chloro-N-(2-chloropyridin-4-yl)-1-methyl-4-{[(1R)-2,2,2-trifluoro-1-methylethyl]sulfamoyl}-1H-pyrrole-2-carboxamide]", "values": [{"measurement": "melting point", "value": 214.8, "unit": "°C"}, {"measurement": "EC50", "setting": "HBV [1]", "value": 10, "unit": "nM"}, {"measurement": "EC50", "setting": "HBV [2]", "value": 20, "unit": "nM"}, {"measurement": "CC50 at 4 days", "setting": "[3]", "value": "> 25000", "unit": "nM"}, {"measurement": "CC50 at 4 days", "setting": "[4]", "value": "> 25000", "unit": "nM"}]}
